Measurements taken from patent US9108983B2, “Pyrrole compounds, a process for their preparation and pharmaceutical compositions containing them” (LES LABORATOIRES SERVIER, priority 2013, dated 2015).
Structures can show the parent of a compound that is named as a salt. Where two headings read alike, the source gives them in different places.

How the values were obtained:
[1] = tested on: RS4;11 leukaemia tumour line; test: In vitro cytotoxicity (Microculture Tetrazolium Assay); type: cell-based; details: RS4;11 cells, exposed for 48 hours, cell viability, read-out: IC50 (nM) MTT RS4;11
Procedure: The cytotoxicity studies were carried out on the RS4;11 leukaemia tumour line.
The cells are distributed onto microplates and exposed to the test compounds for 48 hours.
The cell viability is then quantified by a colorimetric assay, the Microculture Tetrazolium Assay (Cancer Res., 1987, 47, 939-942).

Bcl-2 protein = Bcl-2 protein (histag-Bcl-2, UniProtKB P10415) (Homo sapiens (Human), UniProt P10415); test: Inhibition of Bcl-2 by the fluorescence polarisation technique; type: binding; details: incubation for 2 hours, read-out: IC50 (nM) Bcl-2 FP
Procedure: The fluorescence polarisation tests were carried out on microplates (384 wells). The Bcl-2 protein, labelled (histag-Bcl-2 such that Bcl-2 corresponds to the UniProtKB® primary accession number: P10415), at a final concentration of 2.50×10^−8 M, is mixed with a fluorescent peptide (Fluorescein-[…]), at a final concentration of 1.00×10^−8 M in a buffer solution (Hepes 10 mM, NaCl 150 mM, Tween20 0.05%, pH 7.4), in the presence or absence of increasing concentrations of test compounds. After incubation for 2 hours, the fluorescence polarisation is measured.

Bcl-2 protein, sequence (P10415 whole entry): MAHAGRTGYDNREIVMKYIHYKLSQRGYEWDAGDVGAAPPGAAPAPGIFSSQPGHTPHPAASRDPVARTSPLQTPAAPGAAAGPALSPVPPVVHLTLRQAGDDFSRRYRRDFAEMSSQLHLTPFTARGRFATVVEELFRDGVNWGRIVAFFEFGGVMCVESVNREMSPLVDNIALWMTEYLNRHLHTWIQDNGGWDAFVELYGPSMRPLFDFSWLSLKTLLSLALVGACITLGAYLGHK

Row | IC50 (Bcl-2 protein) | Compound | IC50 ([1]; Homo sapiens, RS4-11, 48 h) | IC50 [1]
1 | 16.2 nM | Cc1c(C(=O)N(c2ccccc2)c2ccc(O)cc2)cc(-c2cc(F)ccc2C(=O)N2Cc3ccccc3C[C@H]2CN2CCOCC2)n1C [Example 10, 5-(5-Fluoro-2-{[(3S)-3-(morpholin-4-ylmethyl)-3,4-dihydroisoquinolin-2(1H)-yl]carbonyl}phenyl)-N-(4-hydroxyphenyl)-1,2-dimethyl-N-phenyl-1H-pyrrole-3-carboxamide hydrochloride] | 205 nM | 
2 | 5.5 nM | Cc1c(C(=O)N(c2ccc(O)cc2)c2ccc3c(cnn3C)c2)cc(-c2cc(F)ccc2C(=O)N2Cc3ccccc3C[C@H]2CN2CCOCC2)n1C [Example 12, 5-(5-Fluoro-2-{[(3S)-3-(morpholin-4-ylmethyl)-3,4-dihydroisoquinolin-2(1H)-yl]carbonyl}phenyl)-N-(4-hydroxyphenyl)-1,2-dimethyl-N-(1-methyl-1H-indazol-5-yl)-1H-pyrrole-3-carboxamide hydrochloride] | 39.6 nM | 
3 | 4.4 nM | Cc1ccc(N(C(=O)c2cc(-c3cc4c(cc3C(=O)N3Cc5ccccc5C[C@H]3CN3CCOCC3)OCO4)n(C)c2C)c2ccc(O)cc2)cc1F [Example 13, N-(3-Fluoro-4-methylphenyl)-N-(4-hydroxyphenyl)-1,2-dimethyl-5-(6-{[(3S)-3-(morpholin-4-ylmethyl)-3,4-dihydroisoquinolin-2(1H)-yl]carbonyl}-1,3-benzodioxol-5-yl)-1H-pyrrole-3-carboxamide hydrochloride] | 19.8 nM | 
4 | 12.6 nM | Cc1c(C(=O)N(c2ccc(O)cc2)c2cccc(F)c2)cc(-c2cc3c(cc2C(=O)N2Cc4ccccc4C[C@H]2CN2CCOCC2)OCO3)n1C [Example 16, N-(3-Fluorophenyl)-N-(4-hydroxyphenyl)-1,2-dimethyl-5-(6-{[(3S)-3-(morpholin-4-ylmethyl)-3,4-dihydroisoquinolin-2(1H)-yl]carbonyl}-1,3-benzodioxol-5-yl)-1H-pyrrole-3-carboxamide hydrochloride] | 22.7 nM | 
5 | 8 nM | Cc1c(C(=O)N(c2ccccc2)c2ccc(O)cc2)cc(-c2cc(Cl)ccc2C(=O)N2Cc3ccccc3C[C@H]2CN2CCOCC2)n1C [Example 17, 5-(5-Chloro-2-{[(3S)-3-(morpholin-4-ylmethyl)-3,4-dihydroisoquinolin-2(1H)-yl]carbonyl}phenyl)-N-(4-hydroxyphenyl)-1,2-dimethyl-N-phenyl-1H-pyrrole-3-carboxamide hydrochloride] | 75.2 nM | 
6 | 3.9 nM | Cc1c(C(=O)N(c2ccccc2)c2ccc(O)cc2)cc(-c2cc3c(cc2C(=O)N2Cc4ccccc4C[C@H]2CCN2CCOCC2)OCO3)n1CCO [Example 18, 1-(2-Hydroxyethyl)-N-(4-hydroxyphenyl)-2-methyl-5-(6-{[(3S)-3-[2-(morpholin-4-yl)ethyl]-3,4-dihydroisoquinolin-2(1H)-yl]carbonyl}-1,3-benzodioxol-5-yl)-N-phenyl-1H-pyrrole-3-carboxamide hydrochloride] | 27.6 nM | 
7 | 4.7 nM | Cc1c(C(=O)N(c2ccc(O)cc2)c2cnn(C)c2)cc(-c2cc3c(cc2C(=O)N2Cc4ccccc4C[C@H]2CN2CCOCC2)OCCO3)n1C [Example 21, N-(4-Hydroxyphenyl)-1,2-dimethyl-N-(1-methyl-1H-pyrazol-4-yl)-5-(7-{[(3S)-3-(morpholin-4-ylmethyl)-3,4-dihydroisoquinolin-2(1H)-yl]carbonyl}-2,3-dihydro-1,4-benzodioxin-6-yl)-1H-pyrrole-3-carboxamide hydrochloride] | 79.9 nM | 
8 | 6.6 nM | Cc1c(C(=O)N(c2ccccc2)c2ccc(O)cc2)cc(-c2cc3c(cc2C(=O)N2Cc4ccccc4C[C@H]2CN2CCOCC2)OCCO3)n1C [Example 22, N-(4-Hydroxyphenyl)-1,2-dimethyl-5-(7-{[(3S)-3-(morpholin-4-ylmethyl)-3,4-dihydroisoquinolin-2(1H)-yl]carbonyl}-2,3-dihydro-1,4-benzodioxin-6-yl)-N-phenyl-1H-pyrrole-3-carboxamide hydrochloride] | 45.7 nM | 

Second part, the molecule before the results:

Row | Compound | IC50 (Bcl-2 protein) | IC50 ([1]; Homo sapiens, RS4-11, 48 h) | IC50 [1]
9 | CN1CCN(C[C@@H]2Cc3ccccc3CN2C(=O)c2ccc(Cl)cc2-c2cc(C(=O)N(c3ccc(O)cc3)c3ccc4c(ccn4C)c3)cn2C)CC1 [Example 5, 5-(5-Chloro-2-{[(3S)-3-[(4-methylpiperazin-1-yl)methyl]-3,4-dihydroisoquinolin-2(1H)-yl]carbonyl}phenyl)-N-(4-hydroxyphenyl)-1-methyl-N-(1-methyl-1H-indol-5-yl)-1H-pyrrole-3-carboxamide hydrochloride] | 21.2 nM | 44.8 nM | 
10 | CCn1cc(C(=O)N(c2ccc(O)cc2)c2ccc3c(ccn3C)c2)cc1-c1cc(Cl)ccc1C(=O)N1Cc2ccccc2C[C@H]1CN1CCN(C)CC1 [Example 6, 5-(5-Chloro-2-{[(3S)-3-[(4-methylpiperazin-1-yl)methyl]-3,4-dihydroisoquinolin-2(1H)-yl]carbonyl}phenyl)-1-ethyl-N-(4-hydroxyphenyl)-N-(1-methyl-1H-indol-5-yl)-1H-pyrrole-3-carboxamide] | 25.2 nM | 69 nM | 
11 | CN1CCN(C[C@@H]2Cc3ccccc3CN2C(=O)c2ccc(Cl)cc2-c2cc(C(=O)N(c3ccc(O)cc3)c3ccc4c(ccn4C)c3)cn2C2CC2)CC1 [Example 7, 5-(5-Chloro-2-{[(3S)-3-[(4-methylpiperazin-1-yl)methyl]-3,4-dihydroisoquinolin-2(1H)-yl]carbonyl}phenyl)-1-cyclopropyl-N-(4-hydroxyphenyl)-N-(1-methyl-1H-indol-5-yl)-1H-pyrrole-3-carboxamide] | 25.6 nM | 90.6 nM | 
12 | CN1CCN(C[C@@H]2Cc3ccccc3CN2C(=O)c2cc3c(cc2-c2cc(C(=O)N(c4ccc(O)cc4)c4ccc5c(ccn5C)c4)cn2C)OCO3)CC1 [Example 9, N-(4-Hydroxyphenyl)-1-methyl-N-(1-methyl-1H-indol-5-yl)-5-(6-{[(3S)-3-[(4-methylpiperazin-1-yl)methyl]-3,4-dihydroisoquinolin-2(1H)-yl]carbonyl}-1,3-benzodioxol-5-yl)-1H-pyrrole-3-carboxamide hydrochloride] | 22.4 nM | 87.5 nM | 
13 | Cc1c(C(=O)N(c2ccccc2)c2ccc(O)cc2)cc(-c2cc(F)ccc2C(=O)N2Cc3ccccc3C[C@H]2CN2CCOCC2)n1CCCO [Example 11, 5-(5-Fluoro-2-{[(3S)-3-(morpholin-4-ylmethyl)-3,4-dihydroisoquinolin-2(1H)-yl]carbonyl}phenyl)-N-(4-hydroxyphenyl)-1-(3-hydroxypropyl)-2-methyl-N-phenyl-1H-pyrrole-3-carboxamide hydrochloride] | 14.2 nM | 202 nM | 
14 | Cc1c(C(=O)N(c2ccc(O)cc2)c2ccc3c(cnn3C)c2)cc(-c2cc3c(cc2C(=O)N2Cc4ccccc4C[C@H]2CN2CCOCC2)OCO3)n1C [Example 14, N-(4-Hydroxyphenyl)-1,2-dlmethyl-N-(1-methyl-1H-indazol-5-yl)-5-(6-{[(3S)-3-(morpholil-4-ylmethyl)-3,4-dihydroisoquinolin-2(1H)-yl]carbonyl}-1,3-benzodioxol-5-yl)-1H-pyrrole-3-carboxamide hydrochloride] | 3.7 nM |  | 8.23 nM
15 | Cc1c(C(=O)N(c2ccccc2)c2ccc(O)cc2)cc(-c2cc3c(cc2C(=O)N2Cc4ccccc4C[C@H]2CN2CCOCC2)OCO3)n1C [Example 15, N-(4-Hydroxyphenyl)-1,2-dimethyl-5-(6-{[(3S)-3-(morpholin-4-ylmethyl)-3,4-dihydroisoquinoin-2(1H)-yl]carbny}-1,3-benzodioxo-5-yl)-N-pheny-1H-pyrrole-3-carboxamide hydrochloride] | 11.1 nM |  | 69.4 nM
16 | COc1ccc(C(=O)N2Cc3ccccc3C[C@H]2CN2CCOCC2)c(-c2cc(C(=O)N(c3ccccc3)c3ccc(O)cc3)c(C)n2C)c1 [Example 19, N-(4-Hydroxyphenyl)-5-(5-methoxy-2-{[(3S)-3-(morpholin-4-ylmethyl)-3,4-dihydroisoquinolin-2(1H)-yl]carbonyl}phenyl)-1,2-dimethyl-N-phenyl-. H-pyrrole-3-carboxamide hydrochloride] | 6 nM |  | 65.5 nM
17 | COc1ccc(C(=O)N2Cc3ccccc3C[C@H]2C)c(-c2cc(C(=O)N(c3ccncc3)c3ccc(O)cc3)c(C)n2C)c1 [Example 20, N-(4-Hydroxyphenyl)-5-(5-methoxy-2-{[(3R)-3-methyl-3,4-dihydroisoquinolin-2(1H)-yl]carbonyl}phenyl)-1,2-dimethyl-N-(pyridin-4-yl)-1H-pyrrole-3-carboxamide hydrochloride] | 4.9 nM | 164 nM | 
18 | Cc1c(C(=O)N(c2ccc(O)cc2)c2cnn(C)c2)cc(-c2cc3c(cc2C(=O)N2Cc4ccccc4C[C@H]2C)OCO3)n1CCO [Example 23, 1-(2-Hydroxyethyl)-N-(4-hydroxyphenyl)-2-methyl-5-(6-{[(3R)-3-methyl-3,4-dihydroisoquinolin-2(1H)-yl]carbonyl}-1,3-benzodioxol-5-yl)-N-(1-methyl-1H-pyrazol-4-yl)-1H-pyrrole-3-carboxamide] | 3.6 nM | 25.4 nM | 
19 | COc1ccc(C(=O)N2Cc3ccccc3C[C@H]2CN2CCOCC2)c(-c2cc(C(=O)N(c3ccc(O)cc3)c3cnn(C)c3)c(C)n2C)c1 [Example 24, N-(4-Hydroxyphenyl)-5-(5-methoxy-2-{[(3S)-3-(morpholin-4-ylmethyl)-3,4-dihydroisoquinolin-2(1H)-yl]carbonyl}phenyl)-1,2-dimethyl-N-(1-methyl-1H-pyrazol-4-yl)-1H-pyrrole-3-carboxamide hydrochloride] | 6.2 nM | 79.1 nM | 
